Measured values: patent US11905279B1, “Benzylidene derivatives of fenobam as anti-inflammatory agents” (KING FAISAL UNIVERSITY, priority 2023, dated 2024)

Key:
human COX-2 = target: T1, human COX-2 (Homo sapiens, UniProt P35354); assay: Cyclooxygenase (COX-2) enzyme inhibition assay, COX (human) Inhibitor Screening Assay Kit; format: biochemical; conditions: compound at 10 μM; in vitro, human COX-2 isoenzyme; ELISA incubation 18 hours; read-out: % Inhibition( COX2) Mean ± SEM
T1 construct: purchased
T1 sequence (P35354 18-604): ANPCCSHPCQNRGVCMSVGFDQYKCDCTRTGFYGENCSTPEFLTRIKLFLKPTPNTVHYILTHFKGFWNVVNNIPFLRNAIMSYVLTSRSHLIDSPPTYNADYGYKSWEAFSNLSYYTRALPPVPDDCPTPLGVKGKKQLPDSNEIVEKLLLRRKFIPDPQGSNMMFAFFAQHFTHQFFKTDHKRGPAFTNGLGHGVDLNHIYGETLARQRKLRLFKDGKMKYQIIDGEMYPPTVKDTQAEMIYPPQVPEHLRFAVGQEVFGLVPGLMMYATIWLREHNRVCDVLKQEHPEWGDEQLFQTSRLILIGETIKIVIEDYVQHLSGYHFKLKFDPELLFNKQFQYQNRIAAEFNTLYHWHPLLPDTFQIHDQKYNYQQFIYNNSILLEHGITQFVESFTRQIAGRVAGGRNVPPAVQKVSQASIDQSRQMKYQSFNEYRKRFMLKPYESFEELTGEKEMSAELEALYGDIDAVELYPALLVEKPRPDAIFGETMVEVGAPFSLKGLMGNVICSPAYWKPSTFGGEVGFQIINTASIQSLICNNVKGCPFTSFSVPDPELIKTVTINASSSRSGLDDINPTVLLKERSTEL
Description: (§1) According to manufacturer instructions, a COX inhibition assay was performed using COX (human) Inhibitor Screening Assay Kit for the compounds 5c, 5d, 5h, 5k, 5l, 5m, and 6d. All reagents and buffers were prepared in ultrapure water. All stock solutions of the compounds and the positive controls (Indomethacin and Celecoxib) were dissolved in DMSO. In each inhibitor sample tube, 160 μL reaction buffer, 10 μL of heme, 10 μL of diluted COX-1 or COX-2 enzyme, and 10 μL of the diluted inhibitor was added to get a final concentration of 100 μM. […] 10 μL of the vehicle control (DMSO) was added to the background tubes, and COX enzyme's 100% initial activity was obtained. All reaction tubes were incubated for 10 minutes at 37° C. Following this incubation, 10 μL of the substrate, arachidonic acid (AA), was added to all test tubes, mixed, and further incubated for precisely 30 seconds at 37° C. Then, 30 μL of SnCl2 solution was added to each reaction tube to stop the enzyme catalysis. All reaction tubes were removed from the incubator, vortexed, and incubated again for 5 min at room temperature. Reaction tubes were stored at 4° C. to quantify the prostaglandin formation by competitive enzyme-linked immunosorbent assay (ELISA). ELISA standards were prepared in test tubes to perform the competitive ELISA, and dilutions were prepared with the ELISA buffer. The standards, COX reaction dilutions, and background samples were serially diluted. After that, 50 μL of the diluted standards, COX background, COX 100% initial activity, and COX inhibitor samples were transferred to the corresponding wells of 96 well ELISA plate. Blank (to assess the background absorbance caused by Ellman's reagent) and total activity (TA) (to determine the enzymatic activity of the AChE-linked tracer) wells were left empty, 100 μL and 50 μL of the ELISA buffer were added to the nonspecific binding (NSB) and maximum binding (BO), respectively. Prostaglandin screening AChE tracer (50 μL) and prostaglandin screening ELISA antiserum (50 μL) were added to corresponding wells except for TA. The plate was covered with a plastic film, wrapped with foil to protect from light, and incubated for 18 hours at room temperature. Following incubation, the plate was washed and developed with 200 μL of Ellman's reagent to all wells, and 5 μL of tracer was added to TA well. The plate was covered with foil, placed on an orbital shaker, and incubated for 60-90 minutes. Finally, the plate reading was done at a wavelength of 405 nm with a Microplate reader from BioTek (by Agilent), and data were collected using Gen5™ (by Agilent) analysis software.
(§2) In vitro catalytic inhibition data of compounds 5c, 5d, 5h, 5k, 5l, 5m, and 6d at 10 μM against human COX-1 and COX-2 isoenzymes is listed in Table 1.

human COX-1 = target: T2, human COX-1 (Homo sapiens, UniProt P23219); assay: Cyclooxygenase (COX-1) enzyme inhibition assay, COX (human) Inhibitor Screening Assay Kit; format: biochemical; conditions: compound at 10 μM; in vitro, human COX-1 isoenzyme; ELISA incubation 18 hours; read-out: % Inhibition( COX1) Mean ± SEM
T2 construct: purchased
T2 sequence (P23219 24-599): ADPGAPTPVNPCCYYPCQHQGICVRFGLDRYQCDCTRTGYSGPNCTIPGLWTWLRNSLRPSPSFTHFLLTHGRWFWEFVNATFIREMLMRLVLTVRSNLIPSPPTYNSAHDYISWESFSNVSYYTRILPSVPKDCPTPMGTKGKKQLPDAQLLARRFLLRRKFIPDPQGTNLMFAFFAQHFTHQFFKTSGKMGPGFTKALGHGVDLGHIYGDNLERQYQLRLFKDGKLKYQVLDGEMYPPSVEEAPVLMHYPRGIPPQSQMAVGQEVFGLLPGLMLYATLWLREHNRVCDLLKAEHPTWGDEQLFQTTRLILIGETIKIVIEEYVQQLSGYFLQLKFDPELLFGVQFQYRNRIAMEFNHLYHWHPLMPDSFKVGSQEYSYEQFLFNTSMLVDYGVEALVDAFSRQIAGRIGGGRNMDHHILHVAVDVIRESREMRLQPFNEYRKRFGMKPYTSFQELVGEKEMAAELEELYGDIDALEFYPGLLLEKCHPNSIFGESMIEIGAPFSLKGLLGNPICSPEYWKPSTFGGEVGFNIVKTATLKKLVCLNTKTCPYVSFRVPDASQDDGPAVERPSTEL
Description: as §1, §2

Structure (SMILES)	inhibition at 10 µM (human COX-2)	inhibition at 10 µM (human COX-1)
CN1/C(=C\c2ccc(Br)o2)C(=O)N/C1=N\C(=O)Nc1ccccc1F [Compound 5c, 1-{(2E,5Z)-5-[(5-Bromofuran-2-yl)methylidene]-1-methyl-4-oxoimidazolidin-2-ylidene}-3-(2-fluorophenyl)urea]	78 ± 15.5%	17 ± 6.5%
CN1/C(=C\c2ccc(-c3ccccc3[N+](=O)[O-])o2)C(=O)N/C1=N\C(=O)Nc1ccccc1F [Compound 5d, 1-(2-Fluorophenyl)-3-[(2E,5Z)-1-methyl-5-{[5-(2-nitrophenyl)furan-2-yl]methylidene}-4-oxoimidazolidin-2-ylidene]urea]	97 ± 0.5%	57 ± 0.15%
CN1/C(=C\c2ccc(-c3ccccc3[N+](=O)[O-])o2)C(=O)N/C1=N\C(=O)Nc1cccc(F)c1 [Compound 5h, 1-(3-Fluorophenyl)-3-[(2E,5Z)-1-methyl-5-{[5-(2-nitrophenyl)furan-2-yl]methylidene}-4-oxoimidazolidin-2-ylidene]urea]	39 ± 2%	51 ± 7%
CN1/C(=C\c2ccc(Br)o2)C(=O)N/C1=N\C(=O)Nc1ccc(F)cc1 [Compound 5k, 1-{(2E,5Z)-5-[(5-Bromofuran-2-yl)methylidene]-1-methyl-4-oxoimidazolidin-2-ylidene}-3-(4-fluorophenyl)urea]	89 ± 3%	26 ± 6.5%
CN1/C(=C\c2ccc(-c3ccccc3[N+](=O)[O-])o2)C(=O)N/C1=N\C(=O)Nc1ccc(F)cc1 [Compound 5l, 1-(4-Fluorophenyl)-3-[(2E,5Z)-1-methyl-5-{[5-(2-nitrophenyl)furan-2-yl]methylidene}-4-oxoimidazolidin-2-ylidene]urea]	20 ± 5.5%	31 ± 2.5%
CN1/C(=C\c2ccc([N+](=O)[O-])cc2)C(=O)N/C1=N\C(=O)Nc1ccc(Cl)cc1Cl [Compound 5m, 1-(2,4-Dichlorophenyl)-3-[(2E,5Z)-1-methyl-5-(4-nitrobenzylidene)-4-oxoimidazolidin-2-ylidene]urea]	69 ± 2.5%	5 ± 23.5%
CN1/C(=C\c2ccc(-c3ccccc3[N+](=O)[O-])o2)C(=O)N/C1=N\C(=S)Nc1cccc(Cl)c1 [Compound 6d, 1-(3-Chlorophenyl)-3-[(2E,5Z)-1-methyl-5-{[5-(2-nitrophenyl)furan-2-yl]methylidene}-4-oxoimidazolidin-2-ylidene]thiourea]	54 ± 8.5%	-14 ± 5.5%
